What all share (assay type): biochemical
The target of one assay is T1, MMP-13 (Homo sapiens, UniProt P45452).
T1 construct: purchased R&D Systems 511-MP
The assay can be described thus: In vitro MMP-13 inhibition test. Summed up:
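APMA-activated recombinant MMP-13 (e.g. 0.1 nM final) in 50 mM Tris/HCl pH 7.5, 10 mM CaCl2, 150 mM NaCl, 0.05% Brij-35 with Mca-PLGL-Dpa(Dnp)-AR-NH2 substrate (e.g. 10 μM final). Fluorescence (ex 320/em 410 nm) followed e.g. 120 min at 32 °C; IC50 at 50% signal.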

The target of a further assay is T2, MMP-7 (Homo sapiens, UniProt P09237).
T2 construct: purchased R&D Systems 907-MP
T2 sequence (P09237 95-267): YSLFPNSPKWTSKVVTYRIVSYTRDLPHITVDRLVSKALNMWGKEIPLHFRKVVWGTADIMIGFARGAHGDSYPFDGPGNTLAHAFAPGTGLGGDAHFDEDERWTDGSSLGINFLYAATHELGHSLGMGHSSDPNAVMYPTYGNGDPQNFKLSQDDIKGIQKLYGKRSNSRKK
The assay can be described thus: In vitro MMP-7 inhibition test. Summed up:
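APMA-activated recombinant MMP-7 (e.g. 0.5 nM final) in Tris/HCl pH 7.5 with CaCl2, NaCl and Brij-35; started with quenched fluorogenic Mca-PLGL-Dpa(Dnp)-AR-NH2 substrate (e.g. 10 μM final). Fluorescence (ex 320/em 410 nm) followed e.g. over 120 min at 32° C; IC50 is the concentration giving 50% signal.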

In the next assay the target is T3, MMP-2 (Homo sapiens, UniProt P08253).
T3 construct: purchased R&D Systems 902-MP
T3 sequence (P08253 110-660): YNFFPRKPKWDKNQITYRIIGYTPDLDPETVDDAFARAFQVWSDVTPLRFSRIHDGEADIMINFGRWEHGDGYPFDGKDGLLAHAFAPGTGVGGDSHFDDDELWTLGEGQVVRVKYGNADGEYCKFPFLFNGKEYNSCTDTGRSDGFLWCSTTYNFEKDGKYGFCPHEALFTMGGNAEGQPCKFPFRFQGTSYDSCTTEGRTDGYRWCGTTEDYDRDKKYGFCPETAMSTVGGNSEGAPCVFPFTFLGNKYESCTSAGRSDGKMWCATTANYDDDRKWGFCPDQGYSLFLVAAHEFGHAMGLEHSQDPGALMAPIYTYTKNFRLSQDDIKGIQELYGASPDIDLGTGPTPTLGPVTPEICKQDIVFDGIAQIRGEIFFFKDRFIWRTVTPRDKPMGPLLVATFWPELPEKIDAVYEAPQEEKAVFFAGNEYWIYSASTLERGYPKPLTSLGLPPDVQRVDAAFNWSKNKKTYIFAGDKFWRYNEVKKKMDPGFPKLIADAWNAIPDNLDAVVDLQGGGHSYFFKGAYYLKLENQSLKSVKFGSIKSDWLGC
The assay is described as follows: In vitro MMP-2 inhibition test. Summed up: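 APMA-activated recombinant MMP-2 (final e.g. 2 nM) in 50 mM Tris/HCl pH 7.5, 10 mM CaCl2, 150 mM NaCl, 0.05% Brij-35, with compound in DMSO. Started with quenched Mca-PLGL-Dpa(Dnp)-AR-NH2 (e.g. 10 μM); fluorescence (ex 320/em 410 nm) followed e.g. 120 min at 32° C.; IC50 at 50% signal.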

Another assay has as its target T4, MMP-16 (Homo sapiens, UniProt P51512).
T4 construct: purchased R&D Systems 1785-MP
The assay can be described thus: In vitro MMP-16 inhibition test. In a few lines:
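Furin-activated recombinant MMP-16 (e.g. 1 nM) in 50 mM Tris/HCl pH 7.5, 10 mM CaCl2, 150 mM NaCl and 0.05% Brij-35 received compound in DMSO (e.g. 1 nM–30 μM), then 5 μM Mca-Lys-Pro-Leu-Gly-Leu-Dpa(Dnp)-Ala-Arg-NH2. Fluorescence (ex 320/em 410 nm) was followed, e.g. over 120 min at 32 °C. IC50 is the concentration halving the signal.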

pIC50: −log10 of the molar value.

T4 sequence (P51512 120-564 limits assumed): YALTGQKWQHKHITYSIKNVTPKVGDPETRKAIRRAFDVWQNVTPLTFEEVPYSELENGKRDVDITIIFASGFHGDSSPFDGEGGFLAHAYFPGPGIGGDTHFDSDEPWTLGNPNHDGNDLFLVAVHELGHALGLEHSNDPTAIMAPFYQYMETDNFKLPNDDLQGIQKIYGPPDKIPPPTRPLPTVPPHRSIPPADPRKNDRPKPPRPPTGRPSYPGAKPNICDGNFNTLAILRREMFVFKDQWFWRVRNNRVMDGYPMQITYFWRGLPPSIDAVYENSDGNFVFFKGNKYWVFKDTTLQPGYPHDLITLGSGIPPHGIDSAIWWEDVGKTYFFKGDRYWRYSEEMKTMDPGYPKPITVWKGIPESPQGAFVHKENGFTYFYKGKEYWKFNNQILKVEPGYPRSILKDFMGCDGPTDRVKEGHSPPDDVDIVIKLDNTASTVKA

Take `Cc1ccc2nnn(C[C@H]3CC[C@@H](C(=O)c4ccc(OCc5ccccc5)cc4)[C@@H]3C(=O)O)c(=O)c2c1` (single isomer, unassigned) [Example 92, (+)-(1RS,2RS,5SR)-2-[4-(Benzyloxy)benzoyl]-5-[(6-methyl-4-oxo-1,2,3-benzotriazin-3(4H)-yl)methyl]cyclopentanecarboxylic acid]: the negative logarithm of the IC50 (pIC50) on MMP-13 is 7.57; at MMP-7, 6.96; against MMP-2, 7.33; against MMP-16 it was 6.96.
For `Cc1cccc(COc2ccc(C(=O)[C@@H]3CC[C@H](Cn4nnc5ccc(C)cc5c4=O)[C@H]3C(=O)O)cc2)c1` (single isomer, unassigned) [Example 98, (+)-(1RS,2RS,5SR)-2-{4-[(3-Methylbenzyl)oxy]benzoyl}-5-[(6-methyl-4-oxo-1,2,3-benzotriazin-3(4H)-yl)methyl]cyclopentanecarboxylic acid], the negative logarithm of the IC50 (pIC50) at MMP-13 is 6.39; against MMP-7 it was 6.48; at MMP-2 it was 6.36; at MMP-16, 6.17.
Regarding `Cc1ccc2nnn(C[C@@H]3CC[C@H](C(=O)c4ccc(OCc5ccccc5)cc4)[C@H]3C(=O)O)c(=O)c2c1` (racemic) [Example 91, (+/−)-(1RS,2RS,5SR)-2-[4-(Benzyloxy)benzoyl]-5-[(6-methyl-4-oxo-1,2,3-benzotriazin-3(4H)-yl)methyl]cyclopentanecarboxylic acid], the pIC50 was 7.30 against MMP-13, 6.72 on MMP-7, 7.00 on MMP-2 and 5.77 on MMP-16.
The matching figures for `O=C(O)[C@H]1[C@H](Cn2nnc3ccccc3c2=O)CC[C@@H]1C(=O)c1ccc(OCC2CCCC2)cc1` (racemic) [Example 4, (+/−)-(1RS,2RS,5SR)-2-[4-(Cyclopentylmethoxy)benzoyl]-5-[(4-oxo-1,2,3-benzotriazin-3(4H)-yl)methyl]cyclopentanecarboxylic acid]: 7.24, 5.66, 7.08 and 6.77.

As usually defined, the pIC50 is the IC50 on a negative log10 scale, so that one unit is a factor of ten. A higher pIC50 goes with a small IC50.

Source of the values: patent US20170022171A1, “2,5-DISUBSTITUTED CYCLOPENTANECARBOXYLIC ACIDS AND THEIR USE” (Bayer Pharma Aktiengesellschaft, priority 2014, published 2017).
